# Experimental data published in patent publication US20260250290A1 (BRISTOL-MYERS SQUIBB COMPANY, priority 2023, published 2026).
# Where a name gives a salt, the structure may show the parent alone.
# Target: T1, SGK1 (Homo sapiens, UniProt O00141)
# T1 sequence (O00141 1-431): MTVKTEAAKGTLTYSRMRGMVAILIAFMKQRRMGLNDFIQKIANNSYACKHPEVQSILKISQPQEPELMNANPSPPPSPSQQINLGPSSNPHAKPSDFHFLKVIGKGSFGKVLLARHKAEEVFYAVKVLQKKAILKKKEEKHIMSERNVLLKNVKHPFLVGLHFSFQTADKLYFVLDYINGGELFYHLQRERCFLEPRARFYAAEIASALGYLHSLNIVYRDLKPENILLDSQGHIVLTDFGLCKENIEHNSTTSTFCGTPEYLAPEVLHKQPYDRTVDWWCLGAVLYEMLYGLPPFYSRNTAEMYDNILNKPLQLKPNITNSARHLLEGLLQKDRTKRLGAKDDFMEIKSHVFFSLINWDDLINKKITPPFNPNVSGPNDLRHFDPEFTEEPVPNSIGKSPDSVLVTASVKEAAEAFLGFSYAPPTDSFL
# Assay: SGK1 inhibition Assay B (Echo mass spectrometry of phosphorylated peptide product)
# Format: biochemical
# Conditions: 60 min at room temperature
# Experimental: 20 μl of 2 nM SGK1 were added in 20 mM Hepes+10 mM MgCl2+0015% Brij-35+4 mM DTT+0.05 mg/ml BSA and the reaction incubated for 60 min at room temperature. The enzymatic reaction was quenched by addition 10 μl of 1% Formic Acid+150 nM Internal Standard: FITC-(Ahx)KKRNRR(pS)VA^—OH (final concentration). The plates are spun down at 3700 RPM for 10 minutes to remove all precipitate. Samples were loaded on to the Sciex Echo Mass Spec attached to a Sciex 6500 equipped with ESI and was used to analyze the phosphorylated peptide product. MRM transition of product and internal standard were monitored at m/z 755 to 937.5 and m/z 757.7 to 941.3 respectively. Peak area of analyte was normalized with internal standard.
# Dose response curves were generated to determine the concentration required for inhibiting 50% of the enzyme activity. Compounds were dissolved at 10 mM in dimethylsulfoxide (DMSO) and evaluated at eleven concentrations.
row,IC50 [nM],Structure (SMILES)
1,0.8,"Cc1nccc(-c2cc(N3CCC[C@@H](NC(=O)c4sc(C)nc4O[C@H]4CC[C@@H](N(C)C)CC4)C3)c3c(N)ncnn23)n1 [Example 1035, N—((R)-1-(4-amino-7-(2-methylpyrimidin-4-yl)pyrrolo[2,1-f][1,2,4]triazin-5-yl)piperidin-3-yl)-4-(((1S,4S)-4-(dimethylamino)cyclohexyl)oxy)-2-methylthiazole-5-carboxamide]"
2,1.3,"CCC1=C(c2cc(N3CCC[C@@H](NC(=O)c4sc(C)nc4OC4CCC(NC5CC5)CC4)C3)c3c(N)ncnn23)COC1=O (stereo partly drawn) [Example 1022, (R)-N-(1-(4-amino-7-(4-ethyl-5-oxo-2,5-dihydrofuran-3-yl)pyrrolo[2,1-f][1,2,4]triazin-5-yl)piperidin-3-y1)-4-((4-(cyclopropylamino)cyclohexyl)oxy)-2-methylthiazole-5-carboxamide]"
3,3,"Cc1nc(O[C@@H]2C[C@H]3CC[C@@H](C2)N3C)c(C(=O)N[C@@H]2CCCN(c3cc(-c4ccc(-n5cnnn5)nc4)n4ncnc(N)c34)C2)s1 [Example 963, N-((R)-1-(7-(6-(1/-tetrazol-1-y1)pyridin-3-y1)-4-aminopyrrolo[2,1-1][1,2,4]triazin-5-y1)piperidin-3-y1)-2-methyl-4-(((IR,35,5S)-8-methy1-8-azabicyclo[3.2 1]octan-3-yl)oxy)thiazole-5-carboxamide]"
4,3,"N#Cc1ccc(C(=O)N[C@@H]2CCCN(c3cc(-c4cnc(-n5cnnn5)c(F)c4)n4ncnc(N)c34)C2)s1 [Example 860, (R)-N-(1-(4-amino-7-(5-fluoro-6-(1H-tetrazol-1-yl)pyridin-3-yl)pyrrolo[2,1-f][1,2,4]triazin-5-yl)piperidin-3-yl)-5-cyanothiophene-2-carboxamide]"
5,2,"Cc1nc(O[C@@H]2C[C@H]3CC[C@@H](C2)N3C(C)C)c(C(=O)N[C@@H]2CCCN(c3cc(-c4ccc(C(N)=O)c(OCC(F)F)n4)n4ncnc(N)c34)C2)s1 [Example 956, N—((R)-1-(4-Amino-7-(5-carbamoyl-6-(2,2-difluoroethoxy)pyridin-2-yl)pyrrolo[2,1-f][1,2,4]triazin-5-yl)piperidin-3-yl)-4-(((1R,3s,5S)-8-isopropyl-8-azabicyclo[3.2.1]octan-3-yl)oxy)-2-methylthiazole-5-carboxamide]"
6,1,CC(C)N1CC2(CC(Oc3cc(Cl)sc3C(=O)N[C@@H]3CCCN(c4cc(-c5ccnc(C#N)c5)n5ncnc(N)c45)C3)C2)C1 [Example 995]
7,1,"Cc1nc(O[C@H]2CC[C@@H](N(C)C)CC2)c(C(=O)N[C@@H]2CCCN(c3cc(-c4ccc(C(N)=O)c(F)c4)n4ncnc(N)c34)C2)s1 [Example 937, N—((R)-1-(4-Amino-7-(4-carbamoyl-3-fluorophenyl)pyrrolo[2,1-f][1,2,4]triazin-5-yl)piperidin-3-yl)-4-(((1s,4S)-4-(dimethylamino)cyclohexyl)oxy)-2-methylthiazole-5-carboxamide]"
8,0.8,"CCC1=C(c2cc(N3CCC[C@@H](NC(=O)c4sc(C)nc4OC4CCC(N[C@H](C)COC)CC4)C3)c3c(N)ncnn23)COC1=O (single isomer, unassigned) [Example 1024]"
9,2.1,"COc1nc(-c2cc(N3CCC[C@@H](NC(=O)c4sc(C)nc4OC4CCC(N5CCC[C@@H]5C)CC4)C3)c3c(N)ncnn23)ccc1C(N)=O (stereo partly drawn) [Example 1043, N—((R)-1-(4-amino-7-(5-carbamoyl-6-methoxypyridin-2-yl)pyrrolo[2,1-f] [1,2,4]triazin-5-yl)piperidin-3-yl)-2-methyl-4-((4-((S)-2-methylpyrrolidin-1-yl)cyclohexyl)oxy) thiazole-5-carboxamide]"
10,1.1,"Cc1nc(OC2CCC(N3CCC3)CC2)c(C(=O)N[C@@H]2CCCN(c3cc(C4=CC(=O)OC4)n4ncnc(N)c34)C2)s1 (stereo partly drawn) [Example 998, (R)-N-(1-(4-amino-7-(5-oxo-2,5-dihydrofuran-3-y1)pyrrolo[2,1-f] [1,2,4]triazin-5-yl)piperidin-3-y1)-4-((4-(azetidin-1-yl)cyclohexyl)oxy)-2-methylthiazole-5-carboxamide]"
11,46,"CCN1C2CCC1CC(Oc1nc(C)sc1C(=O)NC1CCCN(c3cc(-c4ccc(C#N)nc4)n4ncnc(N)c34)C1)C2 [Example 964, N-((R)-1-(4-amino-7-(6-cyanopyridin-3-yl)pyrrolo[2,1-f][1,2,4]triazin-5-y1)piperidin-3-y1)-4-(((1R,3s,5S)-8-ethyl-8-azabicyclo[3.2.]]octan-3-y])oxy)-2-methylthiazole-5-carboxamide]"
12,9,"CC(C)N1CC2(CN(c3cccc(C(=O)N[C@@H]4CCCN(c5cc(-c6ccc(S(C)(=O)=O)c(F)c6)n6ncnc(N)c56)C4)n3)C2)C1 [Example 833, (R)-N-(1-(4-amino-7-(3-fluoro-4-(methylsulfonyl)phenyl)pyrrolo[2,1-f][1,2,4]triazin-5-yl)piperidin-3-yl)-6-(6-isopropyl-2,6-diazaspiro[3.3]heptan-2-yl)picolinamide]"
13,1,"CCN1CC[C@@H](Oc2cc(C(F)F)sc2C(=O)N[C@@H]2CCCN(c3cc(-c4ccc(C(N)=O)c(F)c4)n4ncnc(N)c34)C2)CC1(C)C [Example 947, N—((R)-1-(4-amino-7-(4-carbamoyl-3-fluorophenyl)pyrrolo[2,1-f][1,2,4]triazin-5-yl)piperidin-3-yl)-5-(difluoromethyl)-3-(((R)-1-ethyl-2,2-dimethylpiperidin-4-yl)oxy)thiophene-2-carboxamide]"
14,0.9,"CN1[C@@H]2CC[C@H]1C[C@H](Oc1cc(Cl)sc1C(=O)N[C@@H]1CCCN(c3cc(-c4ccc5c(c4)COC5=O)n4ncnc(N)c34)C1)C2 [Example 924, N—((R)-1-(4-amino-7-(1-oxo-1,3-dihydroisobenzofuran-5-yl)pyrrolo[2,1-f][1,2,4]triazin-5-yl)piperidin-3-yl)-5-chloro-3-(((1R,3s,5S)-8-methyl-8-azabicyclo[3.2.1]octan-3-yl)oxy)thiophene-2-carboxamide]"
15,0.7,"Cc1nc(OC2CCC(NC(C)(C)C)CC2)c(C(=O)N[C@@H]2CCCN(c3cc(-c4ccc(C(N)=O)c(F)n4)n4ncnc(N)c34)C2)s1 (stereo partly drawn) [Example 1056, (R)—N-(1-(4-amino-7-(5-carbamoyl-6-fluoropyridin-2-yl)pyrrolo[2,1-f][1,2,4]triazin-5-yl)piperidin-3-yl)-4-((4-(tert-butylamino)cyclohexyl)oxy)-2-methylthiazole-5-carboxamide]"
16,163,"COC1=C(C(=O)N[C@@H]2CCCN(c3cc(C4=CCN(C(C)=O)C4)n4ncnc(N)c34)C2)CN(C)C1=O [Example 754, (R)-N-(1-(7-(1-acetyl-2,5-dihydro-1H-pyrrol-3-yl)-4-aminopyrrolo[2,1-f][1,2,4]triazin-5-yl)piperidin-3-yl)-4-methoxy-1-methyl-5-oxo-2,5-dihydro-1H-pyrrole-3-carboxamide]"
17,0.5,"Cc1nc(O[C@H]2CC[C@]3(CCCN3C)CC2)c(C(=O)N[C@@H]2CCCN(c3cc(-c4ccc(C(N)=O)c(F)c4)n4ncnc(N)c34)C2)s1 [Example 931, N—((R)-1-(4-amino-7-(4-carbamoyl-3-fluorophenyl)pyrrolo[2,1-f][1,2,4]triazin-5-yl)piperidin-3-yl)-2-methyl-4-(((5S,8r)-1-methyl-1-azaspiro[4.5]decan-8-yl)oxy)thiazole-5-carboxamide, TFA salt]"
18,3,"CNC(=O)c1ccc(-c2cc(N3CCC[C@@H](NC(=O)c4sc(C)nc4O[C@H]4CC[C@@H](N(C)C)CC4)C3)c3c(N)ncnn23)cc1F [Example 932, N—((R)-1-(4-amino-7-(3-fluoro-4-(methylcarbamoyl)phenyl)pyrrolo[2,1-f][1,2,4]triazin-5-yl)piperidin-3-yl)-4-(((1s,4S)-4-(dimethylamino)cyclohexyl)oxy)-2-methylthiazole-5-carboxamide]"
19,4,"CCN1CCC(Oc2nc(C)sc2C(=O)N[C@@H]2CCCN(c3cc(C4=CCN(C(=O)C5(C#N)CC5)C4)n4ncnc(N)c34)C2)CC1(C)C (stereo partly drawn) [Example 985, N—((R)-1-(4-Amino-7-(1-(1-cyanocyclopropane-1-carbonyl)-2,5-dihydro-1H-pyrrol-3-yl)pyrrolo[2,1-f][1,2,4]triazin-5-yl)piperidin-3-yl)-4-((1-ethyl-2,2-dimethylpiperidin-4-yl)oxy)-2-methylthiazole-5-carboxamide]"
20,1,"[2H]C([2H])([2H])Oc1nccc(-c2cc(N3CCC[C@@H](NC(=O)c4sc(C)nc4O[C@H]4CC[C@@H](N(C)C)CC4)C3)c3c(N)ncnn23)n1 [Example 1033, N—((R)-1-(4-amino-7-(2-(methoxy-d3)pyrimidin-4-yl)pyrrolo[2,1-f][1,2,4]triazin-5-yl)piperidin-3-yl)-4-(((1S,4S)-4-(dimethylamino)cyclohexyl)oxy)-2-methylthiazole-5-carboxamide]"

row,Structure (SMILES),IC50 [nM]
1,CNC(=O)c1ccc(-c2cc(N3CCC[C@@H](NC(=O)c4cccc(N5CC6(C5)CN(C(C)C)C6)n4)C3)c3c(N)ncnn23)cn1 [Example 820],21
2,"COC(=O)N1CC=C(c2cc(N3CCC[C@@H](NC(=O)c4cccc(N5CC6(C5)CN(C(C)C)C6)n4)C3)c3c(N)ncnn23)C1 [Example 819, methyl (R)-3-(4-amino-5-(3-(6-(6-isopropyl-2,6-diazaspiro[3.3]heptan-2-yl)picolinamido)piperidin-1-yl)pyrrolo[2,1-f][1,2,4]triazin-7-yl)-2,5-dihydro-1H-pyrrole-1-carboxylate]",21
3,"CN1CCN(c2cccc(C(=O)N[C@@H]3CCCN(c4cc(-c5ccc(-n6cccn6)cc5)n5ncnc(N)c45)C3)n2)CC1 [Example 808, (R)-N-(1-(7-(4-(1H-pyrazol-1-yl)phenyl)-4-aminopyrrolo[2,1-f][1,2,4]triazin-5-yl)piperidin-3-yl)-6-(4-methylpiperazin-1-yl)picolinamide]",34
